Like-named read-outs stand apart in the source and are kept apart here.
What was measured:
[1] = system: Puccinia graminis; format: in vivo
[2] = system: Phytophthora infestans; format: in vivo
[3] = Puccinia graminis on wheat cv. Arina, 0.02% active substance spray (residual) or 0.002% soil (systemic), variant not stated

Compound	B1 activity [1, 3]	B1 activity ([1]; in vivo)	other results
Clc1cccc(Nc2nccc(-c3ccnc(NC4CCOC4)c3)n2)c1 (centres unmarked) [Compound 2]	+ (the activity observed in the corresponding test system is 70% or more)	–	–
CCC(CO)Nc1cc(-c2ccnc(Nc3cccc(Cl)c3)n2)ccn1 (centres unmarked) [Compound 31]	+ (the activity observed in the corresponding test system is 70% or more)	–	B2 activity ([2]; Phytophthora infestans on tomato cv. Roter Gnom, 0.02% active substance spray (residual) or 0.002% soil (systemic), variant not stated): + (the activity observed in the corresponding test system is 70% or more)
CC(CO)Nc1cc(-c2ccnc(Nc3cccc(Cl)c3)n2)ccn1 (centres unmarked) [Compound 39]	+ (the activity observed in the corresponding test system is 70% or more)	–	–
OCCCNc1cc(-c2ccnc(Nc3cccc(Cl)c3)n2)ccn1 [Compound 46]	+ (the activity observed in the corresponding test system is 70% or more)	–	–
Nc1cc(-c2ccnc(Nc3cccc(Cl)c3)n2)ccn1 [Compound 58]	–	+ (key: +: the activity observed in the corresponding test system is 70% or more)	–
CCNc1cc(-c2ccnc(Nc3cccc(Cl)c3)n2)ccn1 [Compound 60]	–	+ (key: +: the activity observed in the corresponding test system is 70% or more)	–
CNc1cc(-c2ccnc(Nc3cccc(Cl)c3)n2)ccn1 [Compound 64]	–	–	B2 activity ([2]; in vivo): + (key: +: the activity observed in the corresponding test system is 70% or more)
CC(C)Nc1cc(-c2ccnc(Nc3cccc(Cl)c3)n2)ccn1 [Compound 68]	–	+ (key: +: the activity observed in the corresponding test system is 70% or more)	–
Clc1cccc(Nc2nccc(-c3ccnc(NCC4CCCO4)c3)n2)c1 (centres unmarked) [Compound 75]	+ (the activity observed in the corresponding test system is 70% or more)	–	–
Clc1cccc(Nc2nccc(-c3ccnc(NCCCOc4ncccn4)c3)n2)c1 [Compound 94]	+ (the activity observed in the corresponding test system is 70% or more)	–	–

From US7109197B2, “N-phenyl-4-(4-pyridyl)-2-pyrimidineamine derivatives” (Syngenta Crop Protection, Inc., priority 2000, dated 2006)
